{"source": "patent US20220031800A1", "about": "“PEPTIDES FOR TREATING NON-EXUDATIVE MACULAR DEGENERATION AND OTHER DISORDERS OF THE EYE” (Allegro Pharmaceuticals, LLC, priority 2019, published 2022)", "key": {"[1]": {"tested_on": "study eye of subjects with intermediate non-exudative AMD", "test": "Best corrected visual acuity (BCVA, letters read) in Dry AMD study", "format": "in vivo, human", "protocol": "The subjects in Groups 1 and 2 received the following treatments: Thus, subjects in Group 1 received an initial sham injection in the study eye followed by a single 1 mg dose of risuteganib in the study eye. The subjects in Group 2 received a total of two (2) doses of risuteganib (1 mg per dose) in the study eye. Numerous study assessments were conducted at various time points throughout the study. Included among these study assessments were; refractive eye examinations, determinations of BCVA AND low-luminance BCVA, Lanthony D-15 color vision test, measurement of intraocular pressure (IOP), Indirect ophthalmoscopy/dilated fundus examinations and spectral-domain optical coherence tomography (SD-OCT). Also, blood and saliva samples were obtained from each subject for genetic analysis. The above-listed study assessments were performed at the time points indicated in Table 1, below: For this study, a primary efficacy endpoint was deemed to be the percentage of population with an improvement in BCVA of at least 8 letters (1.5 lines) BCVA."}, "OIR mouse retina": {"tested_on": "OIR mouse retina", "test": "RNA-seq gene expression in OIR mouse retina after intravitreal injection", "format": "in vivo", "details": "10 μg/1 μL single intravitreal injection", "description": "Purpose: This study used RNA-seq to identify the genes regulated in the mouse retina following risuteganib intravitreal injection. Analysis of the specific genes regulated by risuteganib enables identification of biological processes and pathways modulated by the oligopeptide. […] Risuteganib causes reduced leukocyte attachment, reduced leukocyte trans-endothelial migration and reduced expression of complement 3 receptor. Methods: OIR mouse pups received 5 days of hyperoxia (75% O2) to obliterate developing retinal vessels. Following their return to room air, retinal neovascularization develops due to an imbalance in oxygen supply and demand. At the time of return to room air, both eyes of OIR pups received either vehicle injection or a single intravitreal injection of risuteganib solution at concentration of 10 μg/1 μL. A separate group of pups raised at room air served as control and received either vehicle or risuteganib solution injection consistent with the OIR mouse group. 5 days after injection, at the height of retinal neovascularization in OIR mice, all mice are sacrificed, retina tissue extracted for RNA isolation and RNA-seq. The generated reads were then aligned to the mouse reference genome/transcriptome and gene expression quantified for differential expression analysis and fold change calculation. The list of regulated genes was then submitted to identify biological processes and pathways that are regulated after risuteganib exposure compared to vehicle control in OIR mice or control mice, and in OIR retina compared to control retina that both received vehicle injections."}, "[2]": {"details": "Week 24, Group 1 crossover (sham day 1, 1 mg IVT wk 16), subset gain ≥8 letters at primary endpoint week, n = 2"}, "[3]": {"details": "Week 24, Group 2 (1 mg IVT day 1 + wk 16), subset gain ≥8 letters at any week, n = 14"}, "[4]": {"details": "Week 24, Group 2 (1 mg IVT day 1 + wk 16), subset gain ≥8 letters at primary endpoint week, n = 12"}, "[5]": {"details": "Week 28, Group 1 crossover (sham day 1, 1 mg IVT wk 16), subset gain ≥8 letters at any week, n = 3"}, "[6]": {"details": "Week 28, Group 1 crossover (sham day 1, 1 mg IVT wk 16), subset gain ≥8 letters at primary endpoint week, n = 2"}, "[7]": {"details": "Week 28, Group 2 (1 mg IVT day 1 + wk 16), n = 25"}, "[8]": {"details": "Week 28, Group 2 (1 mg IVT day 1 + wk 16), subset gain ≥8 letters at any week, n = 14"}, "[9]": {"details": "Week 28, Group 2 (1 mg IVT day 1 + wk 16), subset gain ≥8 letters at primary endpoint week, n = 12"}, "[10]": {"details": "Week 28 vs baseline, Group 2 (1 mg IVT day 1 + wk 16), n = 25"}, "[11]": {"details": "Week 32, Group 1 crossover (sham day 1, 1 mg IVT wk 16), subset gain ≥8 letters at any week, n = 3"}, "[12]": {"details": "Week 32, Group 1 crossover (sham day 1, 1 mg IVT wk 16), subset gain ≥8 letters at primary endpoint week, n = 2"}, "[13]": {"details": "Week 32, Group 2 (1 mg IVT day 1 + wk 16), subset gain ≥8 letters at any week, n = 14"}, "[14]": {"details": "Week 32, Group 2 (1 mg IVT day 1 + wk 16), subset gain ≥8 letters at primary endpoint week, n = 12"}, "[15]": {"details": "risuteganib eyes with geographic atrophy in foveal center at baseline (n = 2)"}, "[16]": {"details": "risuteganib eyes with no geographic atrophy in foveal center at baseline (n = 23)"}}, "note": "Square brackets hold non-standard residues; d marks the D form. Peptide text beside a SMILES is read from it. Cya = N[C@@H](CS(=O)(=O)O)C(=O)O"}
{"smiles": "C[C@@H](O)[C@H](NC(=O)[C@H](CS(=O)(=O)O)NC(=O)CNC(=O)[C@H](CCCNC(=N)N)NC(=O)CN)C(=O)N1CCC[C@H]1C(=O)O", "note": "[risuteganib, Glycyl-L-arginylglycyl-3-sulfo-L-alanyl-L-threonyl-L-proline] (H-GRG[Cya]TP-OH)", "values": [{"measurement": "BCVA change in letters read, mean", "setting": "[1]; [2]", "result": 8.0, "unit": "letters read"}, {"measurement": "BCVA change in letters read, median", "setting": "[1]; [2]", "result": 8.0, "unit": "letters read"}, {"measurement": "BCVA letters read, mean", "setting": "[1]; [2]", "result": 78.0, "unit": "letters read"}, {"measurement": "BCVA letters read, median", "setting": "[1]; [2]", "result": 78.0, "unit": "letters read"}, {"measurement": "BCVA change in letters read, mean", "setting": "[1]; [3]", "result": 10.2, "unit": "letters read"}, {"measurement": "BCVA change in letters read, median", "setting": "[1]; [3]", "result": 9.5, "unit": "letters read"}, {"measurement": "BCVA letters read, mean", "setting": "[1]; [3]", "result": 72.7, "unit": "letters read"}, {"measurement": "BCVA letters read, median", "setting": "[1]; [3]", "result": 74.5, "unit": "letters read"}, {"measurement": "BCVA change in letters read, mean", "setting": "[1]; [4]", "result": 11.4, "unit": "letters read"}, {"measurement": "BCVA change in letters read, median", "setting": "[1]; [4]", "result": 10.0, "unit": "letters read"}, {"measurement": "BCVA letters read, mean", "setting": "[1]; [4]", "result": 74.3, "unit": "letters read"}, {"measurement": "BCVA letters read, median", "setting": "[1]; [4]", "result": 75.5, "unit": "letters read"}, {"measurement": "BCVA change in letters read, mean", "setting": "[1]; [5]", "result": 8.0, "unit": "letters read"}, {"measurement": "BCVA change in letters read, median", "setting": "[1]; [5]", "result": 9.0, "unit": "letters read"}, {"measurement": "BCVA letters read, mean", "setting": "[1]; [5]", "result": 77.7, "unit": "letters read"}, {"measurement": "BCVA letters read, median", "setting": "[1]; [5]", "result": 74.0, "unit": "letters read"}, {"measurement": "BCVA change in letters read, mean", "setting": "[1]; [6]", "result": 9.5, "unit": "letters read"}, {"measurement": "BCVA change in letters read, median", "setting": "[1]; [6]", "result": 9.5, "unit": "letters read"}, {"measurement": "BCVA letters read, mean", "setting": "[1]; [6]", "result": 79.5, "unit": "letters read"}, {"measurement": "BCVA letters read, median", "setting": "[1]; [6]", "result": 79.5, "unit": "letters read"}, {"measurement": "BCVA letters read at primary endpoint week, mean", "setting": "[1]; [7]", "result": 70.5, "unit": "letters read"}, {"measurement": "BCVA letters read at primary endpoint week, median", "setting": "[1]; [7]", "result": 71.0, "unit": "letters read"}, {"measurement": "BCVA change in letters read, mean", "setting": "[1]; [8]", "result": 11.4, "unit": "letters read"}, {"measurement": "BCVA change in letters read, median", "setting": "[1]; [8]", "result": 11.5, "unit": "letters read"}, {"measurement": "BCVA letters read, mean", "setting": "[1]; [8]", "result": 73.9, "unit": "letters read"}, {"measurement": "BCVA letters read, median", "setting": "[1]; [8]", "result": 74.5, "unit": "letters read"}, {"measurement": "BCVA change in letters read, mean", "setting": "[1]; [9]", "result": 12.8, "unit": "letters read"}, {"measurement": "BCVA change in letters read, median", "setting": "[1]; [9]", "result": 12.0, "unit": "letters read"}, {"measurement": "BCVA letters read, mean", "setting": "[1]; [9]", "result": 75.7, "unit": "letters read"}, {"measurement": "BCVA letters read, median", "setting": "[1]; [9]", "result": 75.5, "unit": "letters read"}, {"measurement": "BCVA change in letters read at primary endpoint week, mean", "setting": "[1]; [10]", "result": 6.1, "unit": "letters read"}, {"measurement": "BCVA change in letters read at primary endpoint week, median", "setting": "[1]; [10]", "result": 6.0, "unit": "letters read"}, {"measurement": "BCVA change in letters read, mean", "setting": "[1]; [11]", "result": 6.3, "unit": "letters read"}, {"measurement": "BCVA change in letters read, median", "setting": "[1]; [11]", "result": 6.0, "unit": "letters read"}, {"measurement": "BCVA letters read, mean", "setting": "[1]; [11]", "result": 76.0, "unit": "letters read"}, {"measurement": "BCVA letters read, median", "setting": "[1]; [11]", "result": 75.0, "unit": "letters read"}, {"measurement": "BCVA change in letters read, mean", "setting": "[1]; [12]", "result": 6.5, "unit": "letters read"}, {"measurement": "BCVA change in letters read, median", "setting": "[1]; [12]", "result": 6.5, "unit": "letters read"}, {"measurement": "BCVA letters read, mean", "setting": "[1]; [12]", "result": 76.5, "unit": "letters read"}, {"measurement": "BCVA letters read, median", "setting": "[1]; [12]", "result": 76.5, "unit": "letters read"}, {"measurement": "BCVA change in letters read, mean", "setting": "[1]; [13]", "result": 8.2, "unit": "letters read"}, {"measurement": "BCVA change in letters read, median", "setting": "[1]; [13]", "result": 9.5, "unit": "letters read"}, {"measurement": "BCVA letters read, mean", "setting": "[1]; [13]", "result": 70.7, "unit": "letters read"}, {"measurement": "BCVA letters read, median", "setting": "[1]; [13]", "result": 73.0, "unit": "letters read"}, {"measurement": "BCVA change in letters read, mean", "setting": "[1]; [14]", "result": 9.5, "unit": "letters read"}, {"measurement": "BCVA change in letters read, median", "setting": "[1]; [14]", "result": 10.5, "unit": "letters read"}, {"measurement": "BCVA letters read, mean", "setting": "[1]; [14]", "result": 72.4, "unit": "letters read"}, {"measurement": "BCVA letters read, median", "setting": "[1]; [14]", "result": 74.0, "unit": "letters read"}, {"measurement": "≥10 Letter Improvement in Visual Acuity, %", "setting": "[1]; [15]", "result": "(50) %"}, {"measurement": "≥15 Letter Improvement in Visual Acuity, %", "setting": "[1]; [15]", "result": "(0) %"}, {"measurement": "≥10 Letter Improvement in Visual Acuity, %", "setting": "[1]; [16]", "result": "(30) %"}, {"measurement": "≥15 Letter Improvement in Visual Acuity, %", "setting": "[1]; [16]", "result": "(22) %"}, {"measurement": "Number of genes regulated in the OIR retina with statistical significance", "setting": "OIR mouse retina; 5 days after injection, vs vehicle", "result": "around 600 genes"}, {"measurement": "Expression of integrin subunits α5, α6, αM, β1, β2, and β5", "setting": "OIR mouse retina; OIR retina, 5 days after injection", "result": "down regulated"}, {"measurement": "Number of biological pathways down-regulated", "setting": "OIR mouse retina; OIR retina, 10 of them up-regulated in OIR retina", "result": 11}]}
